The record followed here is ChEMBL document CHEMBL1201862, “PubChem BioAssay data set” (2004).

Each structure is given as a SMILES string.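 Exposure lasted 48 hours, with cells grown in 96-well plates and compounds tested at five concentrations. GI50 is the concentration that inhibits growth by half.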 Active and inactive are the calls of the source. Rule as the data show it: active = GI50 up to about 1.1 µM and inactive = higher.

Some test systems named below: MOLT-4; HOP-92; PC-3; KM12; SF-268; NCI-H23; OVCAR-4; BT-549; IGROV-1; 786-0; NCI-H226; SNB-19; Hs-578T; OVCAR-3; SW-620; MDA-MB-231; HCT-15; HCT-116; MDA-N; CAKI-1.
Experiment in all cases: NCI tumour cell line growth inhibition, 48 h

For the compound `COc1cc(C2C(Cl)C(=O)N2NC(=O)c2ccccc2O)cc(OC)c1OC` (configuration not stated), the GI50 with MOLT-4 was 3.01 µM (inactive); in the assay with HOP-92, 5.66 µM (inactive); in the assay on PC-3 it was 3.52 µM (inactive); in the assay with KM12, 5.58 µM (inactive); with SF-268 it was 5.73 µM (inactive); in the assay on NCI-H23, 2.4 µM (inactive). The GI50 with OVCAR-4 is 3.99 µM (inactive); with BT-549 it was > 10 µM (inactive); with IGROV-1 it was 0.188 µM (active); in the assay with 786-0, > 10 µM (inactive); in the assay with NCI-H226, 4.49 µM (inactive); in the assay with SNB-19, 7.05 µM (inactive). In addition, the GI50 in the assay with Hs-578T was 8.38 µM (inactive); in the assay with OVCAR-3, 4.72 µM (inactive); in the assay with SW-620, 2.63 µM (inactive).
`CC1(C)O[C@@H](CP(c2ccc3ccccc3c2)c2ccc3ccccc3c2)[C@H](CP(c2ccc3ccccc3c2)c2ccc3ccccc3c2)O1`: the GI50 in the assay on MDA-MB-231 was > 100 µM (inactive); in the assay with MOLT-4, 78.9 µM (inactive); in the assay with HCT-15 it was above 100 µM; in the assay with HCT-116 it was > 100 µM (inactive); in the assay with MDA-N, > 100 µM (inactive); in the assay on PC-3, 53.5 µM (inactive). Further, the GI50 with KM12 was 70.1 µM (inactive); in the assay with SF-268 it was > 100 µM (inactive); in the assay with NCI-H23, > 100 µM (inactive); in the assay with OVCAR-4, > 100 µM (inactive); in the assay on BT-549 it was > 100 µM (inactive); in the assay with IGROV-1 it was 33 µM (inactive). Also, the GI50 in the assay on 786-0 was > 100 µM (inactive); with NCI-H226, 72.6 µM (inactive); in the assay on SNB-19, > 100 µM (inactive); with CAKI-1 it was > 100 µM (inactive); in the assay on OVCAR-3 it was 58.9 µM (inactive); with SW-620, > 100 µM (inactive).
Take `O=C(O)c1cc(CC2Cc3cc4c(cc3C2=O)CCC4)cc2c1CCC2` (configuration not stated): the GI50 is 76.4 µM (inactive) in the assay with MDA-MB-231; > 100 µM (inactive) in the assay with MOLT-4; 60.7 µM with HCT-15; 72.1 µM (inactive) with HCT-116; 46.6 µM (inactive) in the assay with PC-3; 75.2 µM (inactive) in the assay with KM12. Further, the GI50 in the assay with SF-268, with NCI-H23, with OVCAR-4, in the assay with BT-549, with IGROV-1 and in the assay on 786-0 was > 100 µM (inactive) throughout. The GI50 in the assay with NCI-H226 was > 100 µM (inactive); in the assay with SNB-19 it was > 100 µM (inactive); with CAKI-1 it was > 100 µM (inactive); with Hs-578T it was 48.1 µM (inactive); in the assay with OVCAR-3, 94.4 µM (inactive); in the assay on SW-620, > 100 µM (inactive).
On to `COc1cc(C2c3cc4c(cc3C(=O)C3CCC(=O)N32)OCO4)cc(OC)c1O` (configuration not stated), for which the GI50 in the assay on MOLT-4 was > 50 µM (inactive); with HCT-15, above 50 µM; in the assay with HCT-116, > 50 µM (inactive); in the assay on MDA-N, > 50 µM (inactive); in the assay on HOP-92 it was > 50 µM (inactive); in the assay on PC-3, > 50 µM (inactive). The GI50 with KM12, in the assay on NCI-H23, in the assay on OVCAR-4, in the assay on BT-549, with IGROV-1 and with 786-0 was > 50 µM (inactive) throughout. The GI50 with NCI-H226, in the assay on SNB-19, in the assay with OVCAR-3 and in the assay with SW-620 was > 50 µM (inactive) in each case.
For the compound `O=[N+]([O-])/C(C(Cl)=C(Cl)Cl)=C(/Nc1ccccc1)SCc1ccccc1`, the GI50 in the assay on MDA-MB-231 is 19.9 µM (inactive); in the assay with MOLT-4, 17 µM (inactive); with HCT-15, 14.4 µM; in the assay with HCT-116, 16.6 µM (inactive); in the assay with MDA-N, 16.7 µM (inactive); in the assay with HOP-92, 31 µM (inactive). The GI50 in the assay on PC-3 was 24.5 µM (inactive); in the assay with KM12, 15.3 µM (inactive); in the assay with SF-268 it was 20.5 µM (inactive); with NCI-H23, 20.1 µM (inactive); in the assay with OVCAR-4, 24.7 µM (inactive); in the assay with IGROV-1 it was 22.3 µM (inactive). Also, the GI50 was 17.3 µM (inactive) with 786-0; 21.2 µM (inactive) in the assay on NCI-H226; 25.2 µM (inactive) in the assay on SNB-19; 31.9 µM (inactive) in the assay on CAKI-1; 44.1 µM (inactive) in the assay with Hs-578T; 15 µM (inactive) in the assay on OVCAR-3. Besides, the GI50 with SW-620 was 26.7 µM (inactive).
Take `CC(C)(C)[Si](C)(C)OCC1OC(n2cnc3c(=O)[nH]c(N)nc32)C(O[Si](C)(C)C(C)(C)C)C1O[Si](C)(C)C(C)(C)C` (configuration not stated): the GI50 is 3.71 µM (inactive) with MDA-MB-231; 1.24 µM (inactive) in the assay on MOLT-4; above 46.9 µM in the assay with HCT-15; 1.49 µM (inactive) in the assay on HCT-116; 1.57 µM (inactive) in the assay on MDA-N; 2.61 µM (inactive) with HOP-92. Further, the GI50 in the assay with PC-3 is 1.55 µM (inactive); in the assay on KM12, 1.64 µM (inactive); in the assay on SF-268 it was 2.58 µM (inactive); with NCI-H23, 1.44 µM (inactive); in the assay with OVCAR-4, 1.74 µM (inactive); with IGROV-1, 1.92 µM (inactive). In addition, the GI50 in the assay with 786-0 is 1.67 µM (inactive); in the assay on NCI-H226, 2.84 µM (inactive); with SNB-19, 2.29 µM (inactive); in the assay on CAKI-1 it was 10.9 µM (inactive); with Hs-578T, 2.46 µM (inactive); in the assay with OVCAR-3 it was 1.47 µM (inactive). Besides, the GI50 in the assay on SW-620 is 2.47 µM (inactive).
As to `CN(CCc1ccccn1)c1ccc2c(c1)Cc1ccccc1-2`, the GI50 is 3.09 µM (inactive) in the assay with MDA-MB-231; 5.42 µM (inactive) in the assay with MOLT-4; 3.43 µM with HCT-15; 11.1 µM (inactive) in the assay with HCT-116; 10.2 µM (inactive) in the assay with HOP-92; 2.92 µM (inactive) with PC-3. The GI50 in the assay with KM12 was 14.4 µM (inactive); in the assay on SF-268, 6.5 µM (inactive); in the assay with NCI-H23, 27.7 µM (inactive); in the assay with OVCAR-4, 22.5 µM (inactive); with BT-549 it was 14.7 µM (inactive); with IGROV-1, 16.1 µM (inactive). Moreover, the GI50 in the assay with 786-0 was 25.8 µM (inactive); with NCI-H226, 14.9 µM (inactive); in the assay on SNB-19 it was 19.3 µM (inactive); in the assay on CAKI-1, 61.4 µM (inactive); in the assay with Hs-578T it was 4.54 µM (inactive); in the assay on OVCAR-3 it was 26.1 µM (inactive). Besides, the GI50 with SW-620 is 48.4 µM (inactive).
As to `COc1ccc(N2C(=O)C(=O)N(c3ccccc3[N+](=O)[O-])C2=S)cc1`, the GI50 in the assay with MDA-MB-231 was 20.4 µM (inactive); with MOLT-4, 34.8 µM (inactive); with HCT-15, 18.2 µM; in the assay on HCT-116, 28.6 µM (inactive); in the assay on MDA-N it was 27 µM (inactive); in the assay on HOP-92, 19.6 µM (inactive). Moreover, the GI50 is 40.5 µM (inactive) in the assay with PC-3; 22.3 µM (inactive) with KM12; 33.7 µM (inactive) in the assay on SF-268; 21 µM (inactive) in the assay on NCI-H23; 18.9 µM (inactive) in the assay on OVCAR-4; 34.8 µM (inactive) with IGROV-1. In addition, the GI50 with 786-0 is 33 µM (inactive); in the assay with NCI-H226 it was 28.2 µM (inactive); in the assay with SNB-19 it was 44.6 µM (inactive); in the assay with CAKI-1, 40 µM (inactive); in the assay on Hs-578T, 22.7 µM (inactive); with SW-620 it was 37.9 µM (inactive).
On to `CCOC(=O)c1cc(C)nc2c1c(=O)n(-c1ccccc1)c(=O)n2CCCCN1CCN(c2ccccc2)CC1`, for which the GI50 in the assay with MDA-MB-231 is 48.1 µM (inactive); in the assay on MOLT-4 it was 24.5 µM (inactive); with HCT-15, 49.3 µM; in the assay on HCT-116, > 100 µM (inactive); with HOP-92, > 100 µM (inactive); in the assay with PC-3 it was 47.9 µM (inactive). For the same compound, the GI50 in the assay with KM12 was 61.8 µM (inactive); in the assay on SF-268, > 100 µM (inactive); in the assay on NCI-H23, 77.3 µM (inactive); in the assay on OVCAR-4, 34 µM (inactive); in the assay with BT-549, > 100 µM (inactive); in the assay on IGROV-1 it was > 100 µM (inactive). Further, the GI50 was 73.1 µM (inactive) in the assay with 786-0; > 100 µM (inactive) with NCI-H226; 1.53 µM (inactive) in the assay on CAKI-1; > 100 µM (inactive) in the assay on Hs-578T; > 100 µM (inactive) with SW-620.
As to `CCOC(=O)C1(C(=O)OCC)C[C@@H](C)[C@@H](O)C1`, the GI50 with MDA-MB-231 was > 100 µM (inactive); in the assay with MOLT-4, > 100 µM (inactive); in the assay with HCT-15 it was above 100 µM; with HCT-116 it was > 100 µM (inactive); in the assay on MDA-N, > 100 µM (inactive); in the assay with HOP-92, > 100 µM (inactive). The GI50 in the assay with PC-3, in the assay with KM12, in the assay with SF-268, in the assay with NCI-H23, with OVCAR-4 and with IGROV-1 was > 100 µM (inactive) in each case. For the same compound, the GI50 in the assay with 786-0, in the assay with NCI-H226, with SNB-19, in the assay on CAKI-1, in the assay with Hs-578T and in the assay on OVCAR-3 was > 100 µM (inactive) in each case. In addition, the GI50 with SW-620 is > 100 µM (inactive).
With `C=C1C(=O)C23CC1C[C@H](OC(C)=O)C2C1(C)C(OC(C)=O)C[C@H](O)C(C)(C)[C@H]1C(O)[C@@H]3OC(C)=O` (some centres not stated), the GI50 in the assay with MDA-MB-231 was 7.19 µM (inactive); in the assay with MOLT-4, 2.73 µM (inactive); in the assay with HCT-15, 10.4 µM; in the assay on HCT-116, 5.02 µM (inactive); in the assay with HOP-92 it was 9.29 µM (inactive); in the assay on PC-3, 11.1 µM (inactive). Also, the GI50 in the assay on KM12 is 33 µM (inactive); in the assay on SF-268, 13.4 µM (inactive); in the assay with NCI-H23 it was 12.6 µM (inactive); in the assay with OVCAR-4 it was 10.8 µM (inactive); in the assay on BT-549, 3.03 µM (inactive); in the assay with IGROV-1, 16.5 µM (inactive). In addition, the GI50 is 7.87 µM (inactive) in the assay with 786-0; 22.1 µM (inactive) in the assay with NCI-H226; 21.5 µM (inactive) in the assay on SNB-19; 16.4 µM (inactive) in the assay on CAKI-1; 15.8 µM (inactive) in the assay on Hs-578T; 7.18 µM (inactive) with OVCAR-3. The GI50 with SW-620 is 2.48 µM (inactive).
